Data on eight compounds can be found in ChEMBL document CHEMBL4190244, “Perylenyltriazoles inhibit reproduction of enveloped viruses” (Eur J Med Chem, 2017).

Data set [1] in a line: Cytotoxicity against PEK cells after 7 days. It counts as cell-based, Sus scrofa. The conditions noted are these: pig.
Data set [2] concerns Tick-borne encephalitis virus. As to the kind of experiment: Antiviral activity against TBEV Absettarov infected in PEK cells preincubated simultaneously with cells and virus for 1 hr with shaking every 15 to 20 mins measured after 6 days by gentian violet-staining based assay. It is filed as functional, organism-based.
Data set [3] in a line: Cytotoxicity against PEK cells after 24 hrs. It is filed as cell-based, Sus scrofa. The conditions noted are these: pig.

The term CC50 denotes the concentration at which the toxic effect on the cells reaches its halfway point. The low end stands for harm at low concentration, the high end for better tolerance by the cells. Usually EC50 stands for the concentration at which the effect is half-maximal. A low value points to higher potency in that assay. The compound `O=c1[nH]c(=O)n([C@H]2C[C@H](O)[C@@H](CO)O2)cc1-n1cc(-c2ccc3c4cccc5cccc(c6cccc2c63)c54)nn1` returned a cytotoxic concentration (CC50) at 168 h in data set [1] greater than 50 µM. Besides, the concentration for a half-maximal effect (EC50) in data set [2] turned out to be 0.038 µM. The CC50 at 24 h in data set [3] was greater than 50 µM.
Compound `O=c1[nH]c(=O)n([C@@H]2O[C@H](CO)[C@@H](O)[C@H]2O)cc1-n1cc(-c2ccccc2)nn1` registered a CC50 at 168 h in data set [1] greater than 50 µM. Further, the EC50 in data set [2] was greater than 50 µM. In data set [3], this compound showed a CC50 at 24 h greater than 50 µM.
As to `O=c1[nH]c(=O)n([C@@H]2O[C@H](CO)[C@@H](O)[C@H]2O)cc1-n1cc(-c2ccc3c4cccc5cccc(c6cccc2c63)c54)nn1`, the CC50 at 168 h in data set [1] is greater than 50 µM. The compound further came in with an EC50 in data set [2] of 0.031 µM. Besides, in data set [3], the CC50 at 24 h is greater than 50 µM.
The compound `OCCn1cc(-c2cc3cccc4c5cccc6cccc(c(c2)c34)c65)nn1` registered a CC50 at 168 h in data set [1] greater than 50 µM. For the same compound, the midpoint of the response in data set [2], the EC50, lay at 0.023 µM. The compound also gave a CC50 at 24 h in data set [3] greater than 50 µM.
For the compound `O=c1[nH]c(=O)n([C@H]2C[C@H](O)[C@@H](CO)O2)cc1-n1cc(-c2cc3cccc4c5cccc6cccc(c(c2)c34)c65)nn1`, the CC50 at 168 h in data set [1] is greater than 50 µM. In data set [2], the midpoint of the response, the EC50, lay at 0.06 µM. The compound further showed a CC50 at 24 h in data set [3] greater than 50 µM.
On to `OCCn1cc(-c2ccc3c4cccc5cccc(c6cccc2c63)c54)nn1`, for which, in data set [1], the CC50 at 168 h was greater than 50 µM. In addition, the response in data set [2] was half-maximal at 0.1 µM (EC50). For the same compound, the CC50 at 24 h in data set [3] is greater than 50 µM.
With `O=c1[nH]c(=O)n([C@@H]2O[C@H](CO)[C@@H](O)[C@H]2O)cc1-n1cc(-c2cc3cccc4c5cccc6cccc(c(c2)c34)c65)nn1`, the CC50 at 168 h in data set [1] is greater than 50 µM. This compound also showed an EC50 in data set [2] of 0.06 µM. Also, the CC50 at 24 h in data set [3] is greater than 50 µM.
`O=c1[nH]c(=O)n([C@H]2C[C@H](O)[C@@H](CO)O2)cc1-n1cc(-c2ccccc2)nn1` displayed a CC50 at 168 h in data set [1] greater than 50 µM. For the same compound, the EC50 in data set [2] is greater than 50 µM. Further, in data set [3], the CC50 at 24 h was greater than 50 µM.
